Test results taken from US8658591B2, “Multi-LEU peptides and analogues thereof as selective PACE4 inhibitors and effective antiproliferative agents” (priority 2008, dated 2014).
*: point of attachment. Cholyl = C[C@H](CCC(=O)*)[C@H]1CC[C@H]2[C@@H]3[C@H](O)C[C@@H]4C[C@H](O)CC[C@]4(C)[C@H]3C[C@H](O)[C@]12C

Experiments:
[1] = test system: prostatic cell line DU145; experiment: MTT cell proliferation index, DU145; format: cell-based, human; conditions: for Cell proliferation index: control = 100%, MTT after 48 hours
Experimental: The effects of the PACE4 inhibitors on cell proliferation were evaluated. MTT assay was used to evaluate the effects of PACE4 inhibitors on cell proliferation. MTT (3-(4,5-Dimethylthiazol-2-yl)-2,5-diphenyltetrazolium bromide) assay is a standard colorimetric assay for measuring cellular proliferation. Yellow MTT is reduced to purple formazan in the mitochondria of living cells. This reduction takes place only when mitochondrial reductase enzymes are active. Conversion is directly related to the number of viable cells. The MTT assay is quantitative and more sensitive than viability using trypan blue and can also be adapted to 96 well formats, whereas trypan blue tests must be read individually. Because the MTT assay requires less cell manipulation than [^3H]thymidine incorporation assays (no cell harvesting or medium changes are necessary), the possibility of error is reduced and the standard deviation values are lower. […] Other assays also known can be used to determine the effects of an inhibitor on the proliferation of a cell.
The index of cellular proliferation of cells treated with the ML and acetyl-ML (CH3CO—NH-[…]-CONH2 (SEQ ID NO: 5), see Table 2) peptides were measured using the colorimetric MTT assay (thiazolyl blue tetrazolium bromide; Sigma-Aldrich). Briefly, cells were seeded in 96-well plate (BD Biosciences) in triplicate with 100 μl of a 3.5×10^4 cells/ml cell suspension in complete growth medium. The following day, cells were carefully washed twice with PBS and media were replaced with 100 μl of either RPMI or conditioned growth media. Conditioned growth medium preparation consists in 1.2×10^5 cells seeded in 6-well plates with complete growth media. The next day, cells are washed twice with PBS and the media are replaced with 1 ml RPMI growth medium. 48 hours later, the conditioned media are collected, filtered through […] syringe filter units and incubated on different cell lines.
48 hours later, 20 μl of a MTT solution (5 mg/ml in PBS 1×) was added to each well for 4.5 h at 37° C./5% CO2. The media was then discarded and the cells were solubilized with 100 μl isopropanol/0.04 N HCl solution. The absorbance was measured at a wavelength of 550 nm with a reference at 650 nm in microplate reader (SpectraMax190™; Molecular Devices).

[2] = test system: DU145 cells implanted subcutaneously; experiment: DU145 xenograft tumor growth in nude mice; format: in vivo, Nu/Nu mice; conditions: intra-tumoral 30 mg/kg once every 2 days, start at 50 mm^3 twenty days after implantation; vehicle control 160 mm^3
Source text: To test the effects of PACE4 inhibitors in vivo, a nude mouse model was used in order to validate PACE4's role in tumor progression within an integrated system. […] The genetic basis of the nude mouse mutation is a disruption of the Foxn1 gene. The nude mouse can receive many different types of tissue and tumor grafts, as it mounts no rejection response. These xenografts are commonly used to test new methods of treating tumors. Nude mice were used to test the tumor progression of control DU145 cells compared to PACE4 silenced DU145 cells (clone 4-2) (FIG. 11). Control tumor received vehicle (DMSO) injections. Control tumor continued their growth pattern, reaching an average size of 160 mm^3, while treated tumors only reached a size of 75 mm^3 (FIG. 11A). Consequently, PACE4 inhibition by the specific inhibitors described herein reduces tumors growth. The nude mouse model is well known and extensively tested (Naomoto et al., 1987, J. Cancer Res. Clin. Oncol., 113: 544-549; Taetle et al., 1987 Cancer Treat. Rep. 71: 297-304).
DU145 cells were implanted subcutaneously (sc) at two sites on the backs of Nu/Nu mice, which lack an immune system. […] The genetic basis of the nude mouse mutation is a disruption of the Foxn1 gene. The nude mouse can receive many different types of tissue and tumor grafts, as it mounts no rejection response. […]

In the case of “Cholyl-NH-LLLLRVKR-NH2 (Cholyl-LLLLRVKR-NH2) [cholyl ML]”, the “effect on cell proliferation index, in words” value ([1]; DU145) is reported as “more potent effects than ML or acetyl-ML peptides”, the Cell proliferation index ([1]; DU145, 1 μM peptide) is reported as 86.65% and the Cell proliferation index ([1]; DU145, 10 μM peptide) is reported as 38.70%. The Cell proliferation index ([1]; DU145, 100 μM peptide) was 4.36% and the “average tumor size reached” value [2] was 75 mm^3.
